Reference: ChEMBL document CHEMBL5107996, “Design and evaluation of achiral, non-atropisomeric 4-(aminomethyl)phthalazin-1(2H)-one derivatives as novel PRMT5/MTA inhibitors” (Bioorg Med Chem, 2022)

Columns and labels:
[1] = Metabolic stability in human hepatocytes assessed as intrinsic clearance; assay type: ADME, cell-based, Hepatocyte; conditions: read-out: CLH
HepG2 = assay: Antiproliferative activity against human HepG2 cells assessed as inhibition of cell viability measured after 120 hrs CellTiter-Glo assay; assay type: functional, cell-based; conditions: HepG2, 120 h
[2] = target: T1, Protein arginine N-methyltransferase 5 (Homo sapiens, UniProt O14744); assay: Inhibition of PRMT5 (unknown origin) using H2A and 3H-SAM as substrates preincubated for 20 mins followed by substrate addition incubated for 60 mins in presence of MTA by radiometric HotSpot assay
[3] = target: T1, Protein arginine N-methyltransferase 5; assay: Inhibition of PRMT5 methyltransferase activity in human HCT-116 cells expressing wild type MTAP assessed as inhibition of PRMT5-mediated SDMA modification level incubated for 96 hrs by In-cell Western analysis; assay type: cell-based
[4] = Ratio IC50 for antiproliferative activity against human HCT-116 cells expressing wild type MTAP to IC50 for antiproliferative activity against MTAP knockout human HCT-116 cells
HCT-116 [5] = assay: Antiproliferative activity against MTAP knockout human HCT-116 cells assessed as cell viability after 10 days by CellTiter-Glo assay; assay type: functional, cell-based; conditions: HCT-116, 240 h
[6] = target: T1, Protein arginine N-methyltransferase 5; assay: Inhibition of PRMT5 methyltransferase activity in MTAP knockout human HCT-116 cells assessed as inhibition of PRMT5-mediated SDMA modification level incubated for 96 hrs by In-cell Western analysis; assay type: cell-based
HCT-116 [7] = assay: Antiproliferative activity against human HCT-116 cells expressing wild type MTAP assessed as cell viability after 10 days by CellTiter-Glo assay; assay type: functional, cell-based; conditions: HCT-116, 240 h

T1 sequence (O14744 whole entry): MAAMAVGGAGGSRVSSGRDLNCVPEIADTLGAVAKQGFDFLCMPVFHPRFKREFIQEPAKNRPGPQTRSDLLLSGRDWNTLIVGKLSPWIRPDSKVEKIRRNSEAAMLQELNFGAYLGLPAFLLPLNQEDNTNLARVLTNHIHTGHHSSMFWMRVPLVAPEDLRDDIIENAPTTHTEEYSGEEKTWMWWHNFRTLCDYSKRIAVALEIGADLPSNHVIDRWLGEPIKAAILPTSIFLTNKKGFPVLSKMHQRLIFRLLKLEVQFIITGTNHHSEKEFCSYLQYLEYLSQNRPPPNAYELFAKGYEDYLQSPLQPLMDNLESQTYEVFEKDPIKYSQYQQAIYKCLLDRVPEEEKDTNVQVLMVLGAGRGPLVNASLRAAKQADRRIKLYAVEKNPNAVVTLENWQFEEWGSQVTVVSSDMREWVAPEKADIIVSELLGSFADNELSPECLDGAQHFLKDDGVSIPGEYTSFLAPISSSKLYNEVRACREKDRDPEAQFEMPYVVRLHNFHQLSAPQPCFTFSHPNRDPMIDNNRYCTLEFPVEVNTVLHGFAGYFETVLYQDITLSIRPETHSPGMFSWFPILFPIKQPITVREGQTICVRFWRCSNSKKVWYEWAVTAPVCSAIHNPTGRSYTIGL

CLint scaled [1] | IC50 (HepG2) | IC50 [2] | IC50 [3] | IC50 (HCT-116 [5]) | IC50 [6] | IC50 (HCT-116 [7]) | SMILES | Ratio IC50 [4]
< 18 mL/min/kg | 6600 nM | – | – | – | – | – | Cn1ncc(-c2ccc3c(=O)[nH]nc(CN)c3c2)c1-c1c(F)c(Cl)cc(OC2CC2)c1C#N | –
44 mL/min/kg | – | – | 759 nM | 37 nM | 25 nM | 2030 nM | Cn1ncc(-c2cc(C(F)F)c3c(=O)[nH]nc(CN)c3c2)c1-c1sc2ccccc2c1C#N | 55
39 mL/min/kg | 290 nM | – | 174 nM | 16 nM | 4 nM | 29 nM | Cn1ncc(-c2cc([C@H]3CCCO3)c3c(=O)[nH]nc(CN)c3c2)c1-c1sc2ccccc2c1C#N | 2
66 mL/min/kg | 490 nM | – | 267 nM | 19 nM | 5 nM | 51 nM | COCc1cc(-c2cnn(C)c2-c2sc3ccccc3c2C#N)cc2c(CN)n[nH]c(=O)c12 | 3
< 18 mL/min/kg | – | – | > 1000 nM | 188 nM | 262 nM | 4350 nM | Cn1ncc(-c2cc(O)c3c(=O)[nH]nc(CN)c3c2)c1-c1sc2ccccc2c1C#N | 23
43 mL/min/kg | – | – | > 1000 nM | 711 nM | 390 nM | 2050 nM | Cn1ncc(-c2cc([C@@H]3CCCO3)c3c(=O)[nH]nc(CN)c3c2)c1-c1sc2ccccc2c1C#N | 3
– | – | 99 nM | – | 315 nM | – | – | Cn1ncc(-c2ccc3c(=O)[nH]nc(CN)c3c2)c1-c1sc2ncccc2c1C#N | –
– | – | – | – | 250 nM | – | – | Cn1ncc(-c2ccc3c(=O)[nH]nc(CN)c3n2)c1-c1sc2ccccc2c1C#N | –
– | – | 1350 nM | – | 3510 nM | – | – | Cn1ncc(-c2cnc3c(=O)[nH]nc(CN)c3c2)c1-c1sc2ccccc2c1C#N | –
< 18 mL/min/kg | – | – | 618 nM | 150 nM | 112 nM | 637 nM | CCOc1cc(-c2cnn(C)c2-c2sc3ccccc3c2C#N)cc2c(CN)n[nH]c(=O)c12 | 4
– | – | 650 nM | – | 1540 nM | – | – | Cn1ncc(-c2ccc3c(=O)[nH]nc(CN)c3c2)c1-c1sc2cccnc2c1C#N | –
71 mL/min/kg | – | – | > 1000 nM | 52 nM | 17 nM | 734 nM | Cn1ncc(-c2cc(Cl)c3c(=O)[nH]nc(CN)c3c2)c1-c1sc2ccccc2c1C#N | 14
– | – | 768 nM | – | 2940 nM | – | – | Cn1ncc(-c2ccc3c(=O)[nH]nc(CN)c3c2)c1-c1sc2ccncc2c1C#N | –
27 mL/min/kg | – | – | > 1000 nM | 30 nM | 17 nM | 1470 nM | Cc1cc(-c2cnn(C)c2-c2sc3ccccc3c2C#N)cc2c(CN)n[nH]c(=O)c12 | 49
– | – | 223 nM | – | 1470 nM | – | – | Cn1ncc(-c2ccc3c(=O)[nH]nc(CN)c3c2)c1-c1sc2cnccc2c1C#N | –

SMILES | CLint scaled [1] | IC50 (HepG2) | IC50 [2] | IC50 [3] | IC50 (HCT-116 [5]) | IC50 [6] | IC50 (HCT-116 [7]) | Ratio IC50 [4]
Cn1ncc(-c2ccc3c(=O)[nH]nc(CN)c3c2)c1-c1sc2ccccc2c1C#N | – | 18300 nM | 37 nM | > 1000 nM | – | – | – | 100
